Results from ChEMBL document CHEMBL1150615, “Swinhoeiamide A, a new highly active calyculin derivative from the marine sponge Theonella swinhoei” (2002).
In brackets after ≈: the same amount, converted by molar mass.

Legend:
Format in all cases: functional
Spodoptera littoralis [1] = test: Insecticidal activity against Spodoptera littoralis larvae dosed into hemolymph injection measured per 1000 mg of larval body weight measured after 48 hrs
Aspergillus fumigatus = test: Antifungal activity against Aspergillus fumigatus by serial dilution assay
Spodoptera littoralis [2] = test: Insecticidal activity against Spodoptera littoralis larvae after 5 days by topical contact assay
Candida albicans = test: Antifungal activity against Candida albicans by serial dilution assay
Cladosporium cucumerinum = test: Antifungal activity against Cladosporium cucumerinum at 25 nmol by bioautographic method
Spodoptera littoralis [3] = test: Insecticidal activity against Spodoptera littoralis larvae after 6 days by chronic feeding assay; conditions: 144 h

SMILES | LD50 (Spodoptera littoralis [1]) | MIC (Aspergillus fumigatus) | LD50 (Spodoptera littoralis [2]) | MIC (Candida albicans) | inhibition zone (IZ) (Cladosporium cucumerinum) | LC50 (Spodoptera littoralis [3])
COC[C@@H]([C@H](O)[C@H](O)C(=O)NCC[C@H](C)c1nc(/C=C/C[C@@H]2O[C@]3(C[C@@H](O)[C@@H]2C)O[C@H]([C@H](C[C@H](O)[C@H](C)[C@H](O)[C@H](C)/C=C(C)/C(C)=C/C=C/C(C)=C\C#N)OC)[C@H](OP(=O)(O)O)C3(C)C)co1)N(C)C [CALYCULIN A] | 1 µg | – | – | – | – | –
CO[C@H]1C[C@]2(O[C@H]([C@@H](C[C@H](O)[C@H](C)[C@H](O)[C@H](C)/C=C(C)/C(C)=C/CC/C(C)=C\C(N)=O)OC)[C@H](OP(=O)(O)O)C2(C)C)O[C@H](C/C=C/c2coc(C)n2)[C@H]1C [SWINHOEIAMIDE A] | 0.98 µg | 1 µg/mL (≈ 1.25 µM) | 10 µg | 1.2 µg/mL (≈ 1.51 µM) | 14 mm | 2.98 µg/mL (≈ 3.74 µM)
